Among the data in patent US20150011751A1, “NOVEL TRIAZINE DERIVATIVE” (CARNA BIOSCIENCES, INC., priority 2012, published 2015) are IC50 values, retold here.

For the assay, the target named is Dephosphorylated BTK (Homo sapiens, UniProt Q06187). As to the kind of experiment: Test of activity inhibition against dephosphorylated BTK (mobility shift assay).
Sequence of Dephosphorylated BTK (Q06187 whole entry): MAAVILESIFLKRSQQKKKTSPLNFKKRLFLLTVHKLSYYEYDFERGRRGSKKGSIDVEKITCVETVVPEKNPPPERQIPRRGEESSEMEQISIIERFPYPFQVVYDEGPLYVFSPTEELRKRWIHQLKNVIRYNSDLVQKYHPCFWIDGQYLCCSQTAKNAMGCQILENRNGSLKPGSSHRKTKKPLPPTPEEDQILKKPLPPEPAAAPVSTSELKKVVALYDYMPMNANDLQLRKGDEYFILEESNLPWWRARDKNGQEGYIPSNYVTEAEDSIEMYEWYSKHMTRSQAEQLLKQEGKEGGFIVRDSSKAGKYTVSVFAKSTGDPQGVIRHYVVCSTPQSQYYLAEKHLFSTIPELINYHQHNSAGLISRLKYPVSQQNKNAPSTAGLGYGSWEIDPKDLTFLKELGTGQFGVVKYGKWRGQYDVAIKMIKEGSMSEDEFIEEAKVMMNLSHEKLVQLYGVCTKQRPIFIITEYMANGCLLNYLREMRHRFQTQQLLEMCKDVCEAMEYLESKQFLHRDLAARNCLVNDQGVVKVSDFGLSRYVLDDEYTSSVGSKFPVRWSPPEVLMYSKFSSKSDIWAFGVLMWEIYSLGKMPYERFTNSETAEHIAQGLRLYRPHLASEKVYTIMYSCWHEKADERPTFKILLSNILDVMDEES
The IC50 is the concentration at which inhibition is half-maximal. For the compound `Cc1cc(Nc2nc(N)nc(-c3cccc(NC(=O)c4ccc(C(C)(C)C)cc4)c3CO)n2)cc(C)c1O` [Example 123, N-(3-{4-Amino-6-[(4-hy-droxy-3,5-dimethyl-phenyl)amino]-1,3,5-tri-azin-2-yl}-2-(hydroxy-methyl)phenyl)-4-(tert-butyl)benzamide], the IC50 came out at 1.4 nM.

In the case of `CC(C)(C)c1ccc(C(=O)Nc2cccc(-c3nc(N)nc(Nc4ccc(N5CCS(=O)(=O)CC5)cc4)n3)c2CO)cc1` [Example 124, N-[3-(4-Amino-6-{[4-(1,1-dioxidothiomorpho-lino)phenyl]amino}-1,3,5-triazin-2-yl)-2-(hy-droxymethyl)phenyl]-4-(tert-butyl)benzamide], the IC50 is 0.5 nM.

For `CC(C)(C)c1ccc(C(=O)Nc2cccc(-c3nc(N)nc(Nc4ccc(N5CCCC(O)C5)cc4)n3)c2CO)cc1` (stereo not drawn) [Example 125, N-[3-(4-Amino-6-{[4-(3-hydroxypiperidin-1-yl)phenyl]amino}-1,3,5-triazin-2-yl)-2-(hy-droxymethyl)phenyl]-4-(tert-butyl)benzamide], the IC50 worked out at 0.8 nM. Consider `CC(C)(C)c1ccc(C(=O)Nc2cccc(-c3nc(N)nc(Nc4ccc(N5CCNCC5)cc4)n3)c2CO)cc1` [Example 126, N-[3-(4-Amino-6-{[4-(piperazin-1-yl)phenyl]amino}-1,3,5-triazin-2-yl)-2-(hydroxymeth-yl)phenyl]-4-(tert-butyl)benzamide], for which the IC50 came to 0.5 nM.

For `Nc1nc(Nc2ccc(N3CCOC(CO)C3)cc2)nc(-c2cccc(NC(=O)c3cc4c(s3)CCCC4)c2CO)n1` (stereo not drawn) [Example 127, N-{3-[4-Amino-6-({4-[2-(hydroxymethyl)morpho-lino]phenyl}amino)-1,3,5-triazin-2-yl]-2-(hydroxymethyl)phenyl}-4,5,6,7-tetrahydro-benzo[b]thiophene-2-carboxamide], the half-maximal inhibitory concentration (IC50) was 0.5 nM. As to `Nc1nc(Nc2ccc(N3CCC(O)CC3)cc2)nc(-c2cccc(NC(=O)c3cc4c(s3)CCCC4)c2CO)n1` [Example 128, N-[3-(4-Amino-6-{[4-(4-hydroxypiperidin-1-yl)phenyl]amino}-1,3,5-triazin-2-yl)-2-(hy-droxymethyl)phenyl]-4,5,6,7-tetrahydrobenzo [b]thiophene-2-carbox-amide], the half-inhibitory concentration (IC50) is 0.6 nM.

In the case of `COCCN(CCOC)Cc1ccc(Nc2nc(N)nc(-c3cccc(NC(=O)c4cc5c(s4)CCCC5)c3CO)n2)cc1` [Example 129, N-(3-{4-Amino-6-[(4-{[bis (2-methoxyethyl)a-mino]methyl}phenyl)ami-no]-1,3,5-triazin-2-yl}-2-(hydroxymethyl)phenyl)-4,5,6,7-tetra-hydrobenzo[b]thiophene-2-carboxamide], the IC50 was found to be 0.6 nM. On to `CN1CCN(C)C(c2ccc(Nc3nc(N)nc(-c4cccc(NC(=O)c5cc6c(s5)CCCC6)c4CO)n3)cc2)C1=O` (stereo not drawn) [Example 130, N-[3-(4-Amino-6-{[4-(1,4-dimethyl-3-oxopipe-razin-2-yl)phenyl]ami-no}-1,3,5-triazin-2-yl)-2-(hydroxymethyl)phenyl]-4,5,6,7-tetra-hydrobenzo[b]thiophene-2-carboxamide], for which the IC50 stood at 0.5 nM. The figure for `COCCOc1ccc(Nc2nc(N)nc(-c3cccc(NC(=O)c4cc5c(s4)CCCC5)c3CO)n2)cc1OCCOC` [Example 131, N-[3-(4-Amino-6-{[3,4-bis(2-methoxyethoxy)phenyl]amino}-1,3,5-tri-azin-2-yl)-2-(hydroxy-methyl)phenyl]-4,5,6,7-tetrahydrobenzo[b] thiophene-2-carboxamide] is 0.4 nM; for `Nc1nc(Nc2ccc(CN3CCOCC3)cc2)nc(-c2cccc(NC(=O)c3cc4c(s3)CCCC4)c2CO)n1` [Example 132, N-[3-(4-Amino-6-{[4-(mor-pholinomethyl)phe-nyl]amino}-1,3,5-triazin-2-yl)-2-(hydroxymeth-yl)phenyl]-4,5,6,7-tetrahydrobenzo[b]thio-phene-2-carboxamide] it is 0.5 nM; for `Nc1nc(Nc2ccc(Cn3ccnc3)cc2)nc(-c2cccc(NC(=O)c3cc4c(s3)CCCC4)c2CO)n1` [Example 133, N-{3-[4-({4-[(1H-Imida-zol-1-yl)methyl]phe-nyl}amino)-6-amino-1,3,5-triazin-2-yl]-2-(hy-droxymethyl)phenyl}-4,5,6,7-tetrahydroben-zo[b]thiophene-2-carboxamide] it is 0.4 nM. For the compound `COCCOc1ccc(Nc2nc(N)nc(-c3cccc(NC(=O)c4cc5c(s4)CCCC5)c3CO)n2)cc1` [Example 134, N-[3-(4-Amino-6-{[4-(2-methoxyethoxy)phenyl]amino}-1,3,5-triazin-2-yl)-2-(hydroxymeth-yl)phenyl]-4,5,6,7-tetra-hydrobenzo[b]thio-phene-2-carboxamide], the IC50 turned out to be 0.9 nM.

For the compound `CN(C)CCCOc1ccc(Nc2nc(N)nc(-c3cccc(NC(=O)c4cc5c(s4)CCCC5)c3CO)n2)cc1` [Example 135, N-{3-[4-Amino-6-({4-[3-(dimethylamino)prop-oxy]phenyl}amino)-1,3,5-triazin-2-yl]-2-(hy-droxymethyl)phenyl}-4,5,6,7-tetrahydro-benzo[b]thiophene-2-carboxamide], the half-inhibitory concentration (IC50) came to 1.3 nM.

For `Nc1nc(Nc2ccc(O)cc2)nc(-c2cccc(NC(=O)c3cc4c(s3)CCCC4)c2CO)n1` [Example 136, N-(3-{4-Amino-6-[(4-hy-droxyphenyl)amino]-1,3,5-triazin-2-yl}-2-(hydroxymethyl)phenyl)-4,5,6,7-tetrahydro benzo[b]thiophene-2-carboxamide], the half-maximal inhibitory concentration (IC50) stood at 1.3 nM. The figure for `Nc1nc(Nc2ccc(OCCN3CCOCC3)cc2)nc(-c2cccc(NC(=O)c3cc4c(s3)CCCC4)c2CO)n1` [Example 138, N-[3-(4-Amino-6-{[4-(2-morpholinoethoxy)phe-nyl]amino}1,3,5-tri-azin-2-yl)-2-(hydroxy-methyl)phenyl]-4,5,6,7-tetrahydrobenzo[b]thio-phene-2-carboxamide] is 1.7 nM; for `CC1CCc2sc(C(=O)Nc3cccc(-c4nc(N)nc(Nc5ccc(N6CCOCC6)cc5)n4)c3CO)cc2C1` (stereo not drawn) [Example 139, N-(3-{4-Amino-6-[(4-morpholinophenyl)amino]-1,3,5-triazin-2-yl}-2-(hydroxymethyl)phe-nyl)-5-methyl-4,5,6,7-tetrahydrobenzo[b] thiophene-2-carboxamide] it is 1.6 nM; for `CC(C)(C)c1ccc(C(=O)Nc2cccc(-c3nc(N)nc(Nc4ccc5[nH]ncc5c4)n3)c2CO)cc1` [Example 140, N-(3-{4-[(1H-Indazol-5-yl)amino]-6-amino-1,3,5-triazin-2-yl}-2-(hydroxymethyl)phenyl)-4-(tert-butyl)benzamide] it is 1.7 nM. As for `CC(C)(C)c1ccc(C(=O)Nc2cccc(-c3nc(N)nc(Nc4ccc5[nH]c(=O)[nH]c5c4)n3)c2CO)cc1` [Example 141, N-(3-{4-Amino-6-[(2-oxo-2,3-dihydro-1H-ben-zo[d]imidazol-5-yl)ami-no]-1,3,5-triazin-2-yl}-2-(hydroxymethyl)phenyl)-4-(tert-butyl) benzamide], the figure is 1.2 nM; as for `COC(=O)c1cccc(Nc2nc(N)nc(-c3cccc(NC(=O)c4ccc(C(C)(C)C)cc4)c3CO)n2)c1` [Example 142, Methyl 3-[(4-amino-6-{3-[4-(tert-butyl)benzamido]-2-(hydroxymethyl)phe-nyl}-1,3,5-triazin-2-yl)amino]benzoate], 3.1 nM. Turning to `Nc1nc(Nc2ccc(N3CCCC(O)C3)cc2)nc(-c2cccc(NC(=O)c3cc4c(s3)CCCC4)c2CO)n1` (stereo not drawn) [Example 143, N-[3-(4-Amino-6-{[4-(3-hydroxypiperidin-1-yl)phenyl]amino}-1,3,5-triazin-2-yl)-2-(hy-droxymethyl)phenyl]-4,5,6,7-tetrahydrobenzo [b]thiophene-2-carbox-amide], the half-inhibitory concentration (IC50) is 0.9 nM. Consider `CC(C)(C)c1ccc(C(=O)Nc2cccc(-c3nc(N)nc(Nc4ccc5nc[nH]c5c4)n3)c2CO)cc1` [Example 144, N-(3-{4-[(1H-Benzo[d]imidazol-6-yl)amino]-6-amino-1,3,5-triazin-2-yl}-2-(hydroxymeth-yl)phenyl)-4-(tert-butyl)benzamide], for which the IC50 came to 1.9 nM. For the compound `Nc1nc(Nc2ccc(N3CCOCC3)cc2)nc(-c2cccc(NC(=O)c3ccc(C4CC4)cc3F)c2CO)n1` [Example 145, N-(3-{4-Amino-6-[(4-morpholinophenyl)amino]-1,3,5-triazin-2-yl}-2-(hydroxymethyl)phe-nyl)-4-cyclopropyl-2-fluorobenzamide], the IC50 amounted to 1.8 nM. In the case of `CN1CCN(c2ccc(Nc3nc(N)nc(-c4cccc(NC(=O)c5ccc(C(C)(C)C)cc5)c4CO)n3)cc2)CC1` [Example 146, N-[3-(4-Amino-6-{[4-(4-methylpiperazin-1-yl)phenyl]amino}-1,3,5-triazin-2-yl)-2-(hy-droxymethyl)phenyl]-4-(tert-butyl)benzamide], the half-maximal inhibitory concentration (IC50) worked out at 0.4 nM. `Nc1nc(Nc2ccc(N3CCNCC3)cc2)nc(-c2cccc(NC(=O)c3cc4c(s3)CCCC4)c2CO)n1` [Example 147, N-[3-(4-Amino-6-{[4-(piperazin-1-yl)phenyl]amino}-1,3,5-triazin-2-yl)-2-(hydroxymeth-yl)phenyl]-4,5,6,7-tetra-hydrobenzo[b]thio-phene-2-carboxamide]: the half-inhibitory concentration (IC50) is 0.3 nM. As for `CC(C)(C)c1ccc(C(=O)Nc2cccc(-c3nc(N)nc(Nc4ccc(CC#N)cc4)n3)c2CO)cc1` [Example 148, N-[3-(4-Amino-6-{[4-(cyano-methyl)phenyl]ami-no}-1,3,5-triazin-2-yl)-2-(hydroxymethyl)phenyl]-4-(tert-butyl) benzamide], the figure is 0.8 nM. As for `CC(C)(C)c1ccc(C(=O)Nc2cccc(-c3nc(N)nc(Nc4ccc(C(N)=O)cc4)n3)c2CO)cc1` [Example 149, N-(3-{4-Amino-6-[(4-carbamoylphenyl)amino]-1,3,5-triazin-2-yl}-2-(hydroxymethyl)phe-nyl)-4-(tert-butyl) benzamide], the figure is 0.5 nM; as for `CC(C)(C)c1ccc(C(=O)Nc2cccc(-c3nc(N)nc(Nc4ccc(OCCn5cccc5)cc4)n3)c2CO)cc1` [Example 150, N-{3-[4-({4-[2-(1H-Pyr-rol-1-yl)ethoxy]phe-nyl}amino)-6-amino-1,3,5-triazin-2-yl]-2-(hy-droxymethyl)phenyl}-4-(tert-butyl)benzamide], 0.8 nM.
